Data on seven compounds can be found in PMC7285485, “Antifungal and Antibiofilm Activities and the Mechanism of Action of Repeating Lysine-Tryptophan Peptides against Candida albicans” (Microorganisms, 2020).

In one data set the test system is C. albicans (KCTC 7270). Nature of the data set: microbe, parasite or virus in culture. It counts as cell-based, Candida albicans. The settings on record: Candida albicans, KCTC7270, 2 × 10^4 cells/mL, YPD/PBS, 24 to 30 h, 28 °C, read-out: Minimum Inhibitory Concentrations. The protocol:
(§1) The fungal strains C. albicans (KCTC 7270), C. catenulate (7642), C. intermidia (7234), C. rugosa (7324), C. glabrata (7219) and C. melibiosica (KCTC 7631) were cultured at 28 °C in appropriate media. Fungal cells (final concentration 2 × 10^4 cells/ mL) in 50 μL of YPD media (dextrose 2%, peptone 1% and yeast extract 0.5%) were seeded in each well of a microtiter plate containing 50 μL of two-fold serially diluted peptides in phosphate buffered saline. After incubation for 24 to 30 h at 28 °C, the lowest concentration of the peptides inhibiting the growth of the fungi was microscopically determined to be the minimum inhibitory concentrations (MICs). The effect of salt concentration on the antifungal activity of the peptides was tested by determining the MICs in the presence of NaCl and MgCl2. Fixed concentrations of NaCl (50, 100 and 150 mM) or MgCl2 (1, 2 and 5 mM) were added to the sodium phosphate buffer (pH 7.2). The effect of pH on the antifungal activity of the peptides was tested by determining peptide MICs in the presence of sodium phosphate buffer at a variety of pH values.

For data set [1], the system named is C. albicans (CCARM 14001). Nature of the data set: microbe, parasite or virus in culture. It counts as cell-based, Candida albicans. The following applies: fluconazole-resistant strain CCARM 14001, 24 to 30 h, 28 °C, read-out: Minimum Inhibitory Concentrations.
Data set [2] has as its system C. albicans (CCARM 14007). The data set can be described thus: microbe, parasite or virus in culture. It counts as cell-based, Candida albicans. The following applies: read-out: Minimum Inhibitory Concentrations.
For data set [3], the system named is C. albicans (CCARM 140020). The data set can be described thus: microbe, parasite or virus in culture. The settings on record: read-out: Minimum Inhibitory Concentrations. It counts as cell-based, Candida albicans.
Another data set has as its system C. catenulate. Nature of the data set: microbe, parasite or virus in culture. It counts as cell-based, Candida catenulate. The following applies: read-out: Minimum inhibitory concentration. The protocol:
as §1

The next data set relates to C. rugosa. The data set can be described thus: microbe, parasite or virus in culture. It counts as cell-based, Candida rugosa. The following applies: read-out: Minimum inhibitory concentration. The protocol:
as §1

Another data set deals with C. melibiosica. The data set can be described thus: microbe, parasite or virus in culture. The settings on record: read-out: Minimum inhibitory concentration. In kind it is cell-based, Candida melibiosica. The protocol:
as §1

The next data set concerns C. glabrata. The data set can be described thus: microbe, parasite or virus in culture. In kind it is cell-based, Candida glabrata. The following applies: read-out: Minimum inhibitory concentration. As for the experimental part: as §1
The subject of a further data set is C. intermedia. Nature of the data set: microbe, parasite or virus in culture. In kind it is cell-based, Candida intermedia. The following applies: read-out: Minimum inhibitory concentration. As for the experimental part: as §1
In the next data set the test system is red blood cells. The following applies: ref [35], cited from earlier work; for Hemolysis: red blood cells, 200 µM peptide. From the text:
Furthermore, it maintained its antifungal activity in physiological salt concentrations and at low pH values.

Data set [4] has as its system RNA obtained from C. albicans. The data set can be described thus: RNA gel retardation assay. It counts as binding, Candida albicans. The settings on record: Supplementary Figure S2. The protocol: Briefly, RNA was extracted from C. albicans using the TRI reagent (Molecular Research Center, Cincinnati, OH, USA) according to the manufacturer’s instructions. Purified RNA was collected and resuspended in RNAse-free water. Then, the yeast RNA (10 µg) was mixed with peptide at different concentrations, 2.5–30 µg in 15 µL of 10 mM Tris, 1 mM EDTA buffer (pH 8.0). After 10 min incubation at room temperature, the solution was subjected to electrophoresis on a 1% agarose gel in Tris Borate EDTA (TBE) buffer. Gel retardation was visualized under UV illumination using a Bio-Rad Gel Documentation system.

Read-outs that look alike come from different tables or passages of the source. Ends that are not written are not given here. Peptide text beside a SMILES is read from it.

In the case of `OC(Cn1cncn1)(Cn1cncn1)c1ccc(F)cc1F` [Fluconazole, fluconazole, reference compound], the MIC with C. albicans (KCTC 7270) is 16 µM; in data set [1] (Candida albicans, CCARM14001) it was above 128 µM; in [2] (Candida albicans, CCARM14007, fluconazole-resistant strain CCARM 14007, 24 to 30 h, 28 °C) it was above 128 µM; in [3] (Candida albicans, CCARM140020, fluconazole-resistant strain CCARM 140020, 24 to 30 h, 28 °C) it was above 128 µM; in the data set with C. catenulate (Candida, C. catenulate), 16 µM; with C. rugosa (Diutina rugosa, C. rugosa) it was 16 µM. For the same compound, the MIC is 16 µM in the data set on C. melibiosica (Helenozyma melibiosica, C. melibiosica); 8 µM in the data set on C. glabrata (Nakaseomyces glabratus, C. glabrata); 16 µM in the data set with C. intermedia (Sungouiella intermedia, C. intermedia).
Regarding `NCCCC[C@H](NC(=O)[C@H](Cc1c[nH]c2ccccc12)NC(=O)[C@@H](N)CCCCN)C(=O)N[C@@H](Cc1c[nH]c2ccccc12)C(N)=O` [KW2, KWKW-NH2] (H-KWKW-NH2), the MIC (in [1]; in the data set on C. catenulate; with C. rugosa; with C. melibiosica; in the data set on C. glabrata; with C. intermedia) was above 128 µM throughout. Moreover, in the data set on red blood cells, the Hemolysis is recorded as 0%.
As to KWKWKW-NH2 [KW3, KWKWKW-NH2], the MIC in data set [1] is reported as above 128 µM; in the data set with C. catenulate it was 16 µM; in the data set on C. rugosa it was 32 µM; with C. melibiosica, 32 µM; in the data set on C. glabrata, 32 µM; with C. intermedia, 32 µM. The Hemolysis with red blood cells is 0%.
Turning to KWKWKWKW-NH2 [KW4], the MIC in data set [1] is 32 µM; in [2] (CCARM 14007), 32 µM; in data set [3] (CCARM 140020), 32 µM; in the data set on C. catenulate it was 8 µM; with C. rugosa it was 8 µM; in the data set with C. melibiosica it was 8 µM. Also, the MIC in the data set on C. glabrata and in the data set with C. intermedia was 8 µM throughout. The Hemolysis with red blood cells was 8%. Further, in the data set on red blood cells, the “Hemolytic activity” value is on record as “no hemolytic activity”.
For the compound KWKWKWKWKW-NH2 [KW5], the MIC turned out to be 8 µM in data set [1]; 16 µM in data set [2] (CCARM 14007); 8 µM in [3] (CCARM 140020); 8 µM with C. catenulate; 8 µM in the data set with C. rugosa; 8 µM in the data set on C. melibiosica. The results for the MIC with C. glabrata and in the data set with C. intermedia were 4 µM and 8 µM, respectively. Moreover, the Hemolysis with red blood cells is reported as 71%.
Consider “indolicidin (ILPWKWPWWPWRR; ends and bridges not checked; UniProt P33046 131-143, looked up) [AMP which can act intracellularly]”, for which the “RNA band shift in gel retardation” value in [4] is “did cause a similar band shift”.
Still for that read-out and setting: in the case of magainin II it was “did not cause a band shift”.
